Measurements reported in publication PMC8196580, “Identification of Kaurane-Type Diterpenes as Inhibitors of Leishmania Pteridine Reductase I” (Molecules, 2021).
Where two headings read alike, the source gives them in different places.

Legend:
LmPTR1 = biological target: T1, LmPTR1 (Leishmania major, UniProt Q01782); experiment: LmPTR1 enzyme inhibition assay (spectrophotometric, NADPH oxidation at 340 nm); assay type: biochemical; conditions: for IC50: NADPH 250 µM, pH 6.0, 30 °C, 0.1–128 µM
T1 construct: made in house
T1 sequence (Q01782 1-288): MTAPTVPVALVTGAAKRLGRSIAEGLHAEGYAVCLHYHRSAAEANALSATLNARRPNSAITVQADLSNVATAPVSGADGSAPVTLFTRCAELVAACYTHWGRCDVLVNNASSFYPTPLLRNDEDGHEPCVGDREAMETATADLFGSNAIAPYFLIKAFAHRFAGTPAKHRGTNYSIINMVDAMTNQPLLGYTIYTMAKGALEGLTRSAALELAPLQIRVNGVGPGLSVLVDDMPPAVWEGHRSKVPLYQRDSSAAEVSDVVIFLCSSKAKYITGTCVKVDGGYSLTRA
Description: The selected synthetic diterpene esters 135, 301, 302, 301a, and 302a were tested in vitro to experimentally determine their abilities to inhibit the enzymatic activity of LmPTR1 as an extension of the results provided by the in silico screening. […] The IC50 was then calculated for the tested diterpenes, and these values were used to calculate the apparent inhibitory constant (Ki^app) (Table 3) using the Cheng–Prusoff equation, assuming reversible competitive inhibition and 1:1 stoichiometry. PMA, a known PTR1 inhibitor, was used as a positive control. […] Therefore, a reasonable inference based on this small set of compounds is that the presence of a p-hydroxyl group at the phenylpropanoid moiety might favor inhibitory activity, whereas a 9β-hydroxyl group at the diterpene moiety has a negative influence on LmPTR1 inhibition.
Recombinant LmPTR1 enzyme was obtained, purified, and kinetically characterized, as reported previously. The in vitro assessment of selected diterpenes (i.e., 135, 301, 302, 301a, and 302a) for LmPTR1 inhibitory activity was performed through the spectrophotometric monitoring of the enzymatic activity under balanced conditions: LmPTR1 (30 µg), 7,8-dihydro-L-biopterin (DHB, 20 µM), sodium citrate buffer (20 mM, pH 6.0), 30 °C, and a final assay volume of 600 µL. Each reaction was started by the addition of 250 µM NADPH. Absorbance was monitored at 340 nm (i.e., oxidation of NADPH to NADP+) for 240 s, and the resulting profile was used to measure the initial reaction rate (IRR) through the respective slope by linear regression. All recordings were performed in triplicate. PMA was used as the positive control. The resulting IRR values were used to calculate the % inhibition, as 100 − (Ri/Rc × 100), where Ri is the IRR in the presence of the inhibitor and Rc is the IRR in the absence of inhibitors (1% DMSO v/v final concentration). The % inhibition for at least five concentrations (range: 0.1–128 µM) for each test compound (diterpenes and PMA) were calculated, and concentration-response curves (% inhibition vs. Log[inhibitor]) were obtained by non-linear regression to determine the IC50 using GraphPad Prism 5.0 (GraphPad, San Diego, CA, USA). Finally, Ki^app values were calculated using the Cheng–Prusoff equation for competitive inhibition, assuming a 1:1 stoichiometry and that the inhibitor-binding reactions are reversible: Ki^app = IC50/(1 + [S]/Km), where [S] is the substrate (DHB) concentration and Km is the Michaelis constant. The substrate Km was calculated during the kinetic characterization of purified, recombinant LmPTR1.

L. major [1] = experiment: ChEMBL dataset of pIC50 values against L. major used for the RF model (Table S1); assay type: cell-based, Leishmania major; note: call rule not given here
L. major [2] = test system: L. major; set-up: method as in ChEMBL; conditions: ref ChEMBL, cited from earlier work
[3] = recombinant LmPTR1, DHB 20 µM, read-out: IC50
[4] = Active/Inactive class assigned to ChemBL structures for Random forest model construction (Table S1)
[5] = ChemBL structures with pIC50 values used for Random forest model construction (Table S1)
[6] = Active/Inactive class assigned to the ChEMBL pIC50 value for Random forest model construction, ref ChEMBL
[7] = ChemBL structures with pIC50 values used for Random forest model construction, L. major

SMILES	Outcome (L. major [1]; [4])	pIC50 Value (L. major [2]; [5])	Outcome (L. major [1]; [6])	pIC50 Value (L. major [2]; [7])	other results
CCc1nc(N)nc(N)c1-c1ccc(Cl)cc1 [PMA, pyrimethamine, reference compound]					Ki (LmPTR1): 0.24 µM; IC50 (LmPTR1; IC50, recombinant LmPTR1, DHB 20 µM): 1.11 µM
C=C1CC23CCC4C(C)(C(=O)O)C(OC(=O)C=Cc5ccc(O)cc5)CCC4(C)C2(O)CCC1C3 (stereo not drawn) [301a, 3α-p-coumaroyloxy-9β-hydroxy-ent-kaur-16-en-19-oic Acid]					Ki (LmPTR1; read-out: Ki^app): 5.08 µM; IC50 (LmPTR1; [3]): 23.2 µM
C=C1C[C@@]23CC[C@@H]4[C@](C)(C(=O)O[C@H]5C=C(C)[C@@H](O)C[C@@H]5C(C)C)CCC[C@@]4(C)C2CC[C@@H]1C3 (stereo partly drawn) [compound 135, 2β-hydroxy-menth-6-en-5β-yl ent-kaurenoate]					Ki (LmPTR1; read-out: Ki^app): 1.88 µM; IC50 (LmPTR1; [3]): 8.6 µM
C=C1CC23CCC4C(C)(CCC(OC(=O)C=Cc5ccc(O)cc5)C4(C)C(=O)O)C2CCC1C3 (stereo not drawn) [302a, 3α-p-coumaroyloxy-ent-kaur-16-en-19-oic acid]					improvement of inhibitory activity versus 302 (LmPTR1; 3α-p-coumaroyloxy instead of 3α-cinnamoyloxy): approximately 60%; Ki (LmPTR1; read-out: Ki^app): 1.33 µM; IC50 (LmPTR1; [3]): 6.1 µM
Cc1ccc2cc(/C=C/C(=O)c3sccc3Br)c(Cl)nc2c1 [CHEMBL1940858]	Active	5.74			
Cc1ccccc1Cn1cc(CNc2nnc(-c3ccc([N+](=O)[O-])o3)s2)nn1 [CHEMBL1951528]			Inactive	4.60	
c1ccc(-c2nc3cnccn3c2-c2ccncc2)cc1 [CHEMBL3634356]			Inactive	4.70	
C/C=C(\C)C(=O)N[C@H]1CC[C@]2(C)[C@H]3CC[C@]4(C)[C@@H]([C@H](C)NC)CC[C@H]4[C@@H]3CC[C@H]2[C@H]1OC(C)=O [CHEMBL504924]	Active	5.82			
O=[N+]([O-])c1ccc2nc(-c3cccs3)[nH]c2c1 [CHEMBL2297907]	Active	5.48			
Cn1c([N+](=O)[O-])cnc1-c1nnc(N2CCN(C(=O)c3cccs3)CC2)s1 [CHEMBL482666]			Inactive	4.59	
COc1ccc(C2NC(=O)NC(C)=C2C(C)=O)cc1 (stereo not drawn) [CHEMBL1369396]	Active	5.58			
O=[N+]([O-])c1ccc(-c2nc3ccccc3[nH]2)cc1 [CHEMBL473361]	Active	5.53			
CC(C)c1ccc(-c2nc3cc([N+](=O)[O-])ccc3[nH]2)cc1 [CHEMBL2297904]	Active	5.55			
CC[C@H](CO)Nc1nc(NCc2ccccc2O)c2ncn(C(C)C)c2n1 [CHEMBL1094304]			Inactive	4.33	
CC(C)c1ccc(-c2nc3ccccc3[nH]2)cc1 [CHEMBL2298014]	Active	5.57			
COc1cccc2c1C(=O)C=C(C)C2=O [CHEMBL1531003]	Active	5.48			
Nc1ccc2ncnc(Nc3ccc(OCc4cccc(F)c4)c(Cl)c3)c2c1 [CHEMBL3637893]			Inactive	4.98	
Cc1ccc(N2C(=O)C(c3ccccc3)(c3ccccc3)C2c2cn(C)c3ccccc23)cc1 (stereo not drawn) [CHEMBL2071561]	Active	5.88			
O=C(CCl)N1c2ccccc2Oc2ccc(Cl)cc21 [CHEMBL3758242]			Active	5.12	
C=CC(C)(C)c1cc(/C=C/C(=O)c2ccc(O)cc2)c(OC)cc1O [CHEMBL139702]			Inactive	4.85	

SMILES	Outcome (L. major [1]; [4])	pIC50 Value (L. major [2]; [5])	Outcome (L. major [1]; [6])	pIC50 Value (L. major [2]; [7])	other results
COc1cc(OC)c(-c2ccc(OC)c3c(OC)cc(C)cc23)c2c1C(C)=N[C@@H](C)C2 [CHEMBL390586]			Inactive	4.00	
Cn1cc(/C=N/Cc2ccccc2)c2ccccc21 [CHEMBL2071559]	Active	5.54			
C=C[C@@]1(C)CC2=C(C[C@H]1C(=C)C)C(O)C=CC2O (stereo partly drawn) [CHEMBL257133]			Inactive	4.74	
C/C=C/c1cc(O)c(OC)c(OC)c1 [CHEMBL489518]			Inactive	3.43	
NCCNCCc1ccc(Nc2c3ccccc3nc3ccccc23)cc1 [CHEMBL89150]	Active	6.15			
Clc1cccc(-c2c(-c3ccccc3)nc3cnccn23)c1 [CHEMBL3634354]			Inactive	4.84	
Cc1ccc(N2C(=O)C(c3ccc(C)cc3)(c3ccc(C)cc3)C2c2cn(C)c3ccccc23)cc1 (stereo not drawn) [CHEMBL2071565]	Active	5.89			
O=[N+]([O-])c1ccc2nc(-c3ccc[nH]3)[nH]c2c1 [CHEMBL2297906]	Active	5.40			
CN(C)CCNc1nccn2c(-c3ccncc3)c(-c3ccc(F)cc3)nc12 [CHEMBL3634366]			Inactive	4.45	
COc1ccc(/C=N/NC(=O)c2ccccc2OC)cc1Br [CHEMBL2382039]			Active	5.12	
CCCCN(CCCC)c1ccc(Nc2c3ccccc3nc3ccccc23)cc1 [CHEMBL312941]	Active	6.46			
COc1ccccc1-c1nnc(-c2ccc(C(=O)N/N=C/c3cccnc3)cc2)o1 [CHEMBL4090822]			Inactive	4.33	
CC1=C(C(=O)/C=C/c2cccc([N+](=O)[O-])c2)C(c2ccccc2)NC(=O)N1C (stereo not drawn) [CHEMBL3785174]	Active	5.71			
CCCN1CN(CC(=O)OC)CSC1=S [CHEMBL4294585]			Inactive	3.69	
COCCOC(=O)C1=C(C)NC(C)=C(C(=O)OC(C)C)C1c1cccc([N+](=O)[O-])c1 (stereo not drawn) [CHEMBL1428]			Inactive	4.51	
N#CCC(=O)N1c2ccccc2Oc2ccccc21 [CHEMBL3758694]			Inactive	4.00	
Cc1ccc(C(=O)N2CCN(c3ccnc4cc(Cl)ccc34)CC2)cc1 [CHEMBL1256729]			Inactive	4.15	
O=C(/C=C/c1ccccc1Br)C1=Cc2cc(Cl)ccc2OC1 [CHEMBL1094316]	Active	5.88			
Oc1ccc(-c2c(-c3ccccc3)nc3ccccn23)cc1 [CHEMBL2151859]			Inactive	4.40	
CC(C)C1=Cc2ccc3c(c2C(=O)C1=O)C(=O)CCC3(C)C [CHEMBL485479]			Inactive	4.75	
